Key:
[1] = target: T1, GFP-canine α1 and Src-Rluc in 293T cells (Canis lupus familiaris, UniProt P50997); assay: BRET analysis; type: cell-based, human
T1 construct: expressed in transfected cells; host or cells: 293T (human embryo kidney)
Procedure: BRET assay was done as described by Lowry et al. (2002). Briefly, 24 h after transfection with GFP-Na+/K+-ATPase and Src-Rluc or other constructs as indicated, cells were seeded in triplicate in a 96-well microplate. After treatment with indicated concentration of ouabain, cells were exposed to equal volume of BRET analysis buffer containing 10 μM DeepBlue C, the substrate of Rluc. The emission at 410 nm (for Rluc) and 515 nm (for GFP) was immediately acquired using a Fluoroskan Ascent FL (Labsystems, Franklin, Mass.) with microplate luminometric detection. The BRET ratio was calculated as follows: (Emission at 515 nm−Background at 515 nm)/(Emission at 410 nm−Background at 410 nm), where Background signal was assessed in each experiment by measuring the signal of a sample of nontransfected cells.

Src and ERK1/2 = assay: Activation of Src and ERK1/2 in P-11, A4-11, PY-17 and AAC-19 cells (Western blot); type: cell-based, pig; conditions: for Src activation (Tyr(P)418-Src): 100 nM ouabain
Procedure: FIGS. 18A and 18B. Cells were exposed to 100 nM ouabain for either 5 or 15 min, and the cell lysates (50 μg/lane) were analyzed by Western blot for active Src or active ERK1/2. Blots were probed first with anti-Tyr(P)^418-Src or anti-pERK antibody, then stripped, and reprobed for total Src or ERK1/2 to ensure equal loading.
FIGS. 18 C and 18D. Cells were treated with indicated concentrations of ouabain for 5 min, and total cell lysates were analyzed for Tyr(P)^418-Src and total Src or pERK1/2 and total ERK1/2 as in FIGS. 18A and 18B. A representative Western blot and combined quantitative data are shown. The quantitative data (relative ratio of pSrc/Src or pERK/ERK) from three independent experiments (mean±S.E.) were calculated relative to the control condition of P-11 cells. *, p<0.05 versus the respective control condition of each cell line. con, control.
Cells were washed with PBS, solubilized in modified ice-cold radioimmune precipitation assay buffer, and subjected to immunoprecipitation or Western blot analysis. Protein signal was detected using the enhanced chemiluminescence kit and quantified using a Bio-Rad GS-670 imaging densitometer.

LLC-PK1 cells = assay: Tyrosine phosphorylation of Na+/K+-ATPase-associated proteins (anti-α1 immunoprecipitation); type: cell-based, pig; conditions: 1 μM ouabain, 5 min
Procedure: FIG. 9A. LLC-PK1 cells were treated with 1 μM ouabain for 5 min, and cell lysates were immunoprecipitated with anti-α1 antibody and analyzed for tyrosine phosphorylated proteins.
Cells were lysed in RIPA buffer containing 1% Nonidet P40, 0.25% sodium deoxycholate, 150 mM NaCl, 1 mM EDTA, 1 mM phenylmethylsulfonyl fluoride, 1 mM sodium orthovanadate, 1 mM NaF, 10 μg/ml aprotinin, 10 μg/mlleupeptin, and 50 mM Tris-HCl (pH 7.4). Cell lysates were cleared by centrifugation at 16,000×g for […], and the supernatants (1 mg) were either immunoprecipitated with anti-α1 antibody or incubated with different GST-fusion proteins. The complexes were then pulled down by either protein G agarose or glutathione beads (Ma et al., 2000; Haas et al., 2002) and analyzed by Western blot.

[2] = test system: Na+/K+-ATPase/Src complex; assay: Effect of ouabain on binding of GST-Src constructs to Na+/K+-ATPase; conditions: 10 μM ouabain, 15 min
Procedure: FIG. 7C. A representative Western blot of four separate experiments showing that ouabain induced the release of the kinase domain from the Na+/K+-ATPase. […] Complexes were then pulled down on glutathione beads, washed three times, resuspended in 500 μl PBS, and exposed to 10 μM ouabain for 15 min. The beads were then washed for three more times using PBS, and the pulled down Na+/K+-ATPase was analyzed by Western blot using anti-α1 antibody
Because the inventors have shown that multiple domains are involved in Src interaction with the Na+/K+ATPase, the above findings led us to test if ouabain dissociates only a single (kinase) domain from the interacting Na+/K+-ATPase. […] Afterward, the complexes were exposed to 10 μM ouabain.

[3] = target: T2, purified pig kidney Na+/K+-ATPase (Sus scrofa, UniProt P05024); assay: ATPase activity of purified pig kidney Na+/K+-ATPase; type: biochemical; conditions: 10 μM ouabain
T2 construct: Na+/K+-ATPase was purified from pig kidney outer medulla using the Jorgensen method; from tissue; host or cells: pig kidney outer medulla
Description: Src, without the first 85 amino acid residues, was purified from sf-9 cells as described (Ma et al., 2000) and used in the initial binding assays to ensure that Src binds to the Na+/K+-ATPase, but not the lipid composition in the purified Na+/K+-ATPase preparation. In subsequent experiments (e.g., phosphorylation and activity assays), purified recombinant full-length Src from Upstate Biotechnology was used. Na+/K+-ATPase was purified from pig kidney outer medulla using the Jorgensen method (Xie et al., 1996) and the preparations with specific activities between 1200 and 1400 μmol Pi/mg/h were used.
GST fusion proteins or His-tagged proteins were expressed in Escherichia coli BL21 and purified on glutathione beads or nickel column.

C[C@@H]1O[C@@H](O[C@H]2C[C@@H](O)[C@]3(CO)[C@H]4[C@H](O)C[C@]5(C)[C@@H](C6=CC(=O)OC6)CC[C@]5(O)[C@@H]4CC[C@]3(O)C2)[C@H](O)[C@H](O)[C@H]1O [ouabain]
ouabain concentration at which significant decrease in BRET ratio was detected [1]: 10 nM | BRET ratio ([1]; different concentrations of ouabain): dose-dependent decrease in the BRET ratio | Src activation (Tyr(P)418-Src) (Src and ERK1/2; A4-11 cells): significant reduction | dose-response of Src and ERK1/2 activation (Src and ERK1/2; AAC-19 cells (rat α1 knock-in)): shifted the dose-response curve to the right | Src activation (Tyr(P)418-Src) (Src and ERK1/2; P-11 cells): activated Src | Src activation (Tyr(P)418-Src) (Src and ERK1/2; PY-17 cells): essentially abolished | ERK1/2 phosphorylation (Src and ERK1/2; PY-17 cells, ouabain): failed to detect any ouabain-induced change | tyrosine phosphorylation of Na+/K+-ATPase-associated proteins (LLC-PK1 cells): stimulated tyrosine phosphorylation | binding of Src kinase domain to the Na+/K+-ATPase [2]: dissociated the kinase domain | binding of full-length Src or SH3SH2 domain to the Na+/K+-ATPase [2]: no effect on the binding of either full-length Src or the SH3SH2 domain | inhibition of the ATPase activity [3]: complete inhibition
